Measured values from patent publication US7135182B2, “Inhibition of transglutaminase-mediated microbial interaction with a mammalian host” (priority 1998, dated 2006).

Legend:
[1] = target: T1, guinea pig liver transglutaminase (UniProt P08587); assay: Fluorescence assay of transglutaminase-catalyzed cross-linking of 5-(biotinamido)pentylamine to C. albicans germ tube surfaces; assay type: biochemical; conditions: C. albicans SC5314 germ tubes; EGTA 20 mM (FIG. 2B)
T1 construct: guinea pig liver transglutaminase (8.5 μg); from tissue; host or cells: guinea pig liver
T1 sequence (P08587 whole entry): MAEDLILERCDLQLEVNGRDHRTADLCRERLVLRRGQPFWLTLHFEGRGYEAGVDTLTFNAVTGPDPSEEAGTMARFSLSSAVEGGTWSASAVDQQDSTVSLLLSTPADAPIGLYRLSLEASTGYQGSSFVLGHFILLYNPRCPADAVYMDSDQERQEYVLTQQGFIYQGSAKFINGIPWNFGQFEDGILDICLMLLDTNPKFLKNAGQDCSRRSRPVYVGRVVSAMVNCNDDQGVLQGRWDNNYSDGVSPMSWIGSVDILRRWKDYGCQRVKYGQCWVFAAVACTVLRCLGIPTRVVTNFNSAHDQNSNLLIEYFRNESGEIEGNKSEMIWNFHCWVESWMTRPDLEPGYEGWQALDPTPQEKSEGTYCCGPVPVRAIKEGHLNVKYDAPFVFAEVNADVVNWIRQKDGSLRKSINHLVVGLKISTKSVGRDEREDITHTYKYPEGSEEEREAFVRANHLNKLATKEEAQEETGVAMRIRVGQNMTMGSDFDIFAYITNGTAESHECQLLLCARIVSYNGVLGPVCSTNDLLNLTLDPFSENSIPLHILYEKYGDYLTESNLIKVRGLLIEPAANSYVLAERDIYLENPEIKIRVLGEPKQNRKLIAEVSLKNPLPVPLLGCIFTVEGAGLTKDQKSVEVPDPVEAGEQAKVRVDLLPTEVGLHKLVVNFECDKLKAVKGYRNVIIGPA
Description: To detect germ tube surface proteins serving as glutamine donors in transglutaminase-catalyzed cross-linking reactions, a fluorescence assay using a biotinylated lysine analogue as the primary amine acceptor and liver transglutaminase was developed.
Washed M199-germinated C. albicans cells (10^8/ml), guinea pig liver transglutaminase (8.5 μg), and 5-(biotinamido)pentylamine (30 μM) (Pierce) were incubated in reaction buffer 1 (400 μl) (100 mM Tris-Cl pH 7.5, 5 mM CaCl2, 1 mM DTT, 2 mM EDTA) for 15 minutes at 37° C. Reactions were stopped with EDTA (10 mM), germ tubes were washed with distilled water, spotted onto microscope slides, air dried, incubated with avidin-FITC (1:100) (Zymed) and BSA-rhodamine (1:30) (Difco) in PBS at 37° C., washed and examined by fluorescence microscopy.

[2] = tested on: adhesion of C. albicans germ tubes (UnoPP-1) to human buccal epithelial cells (BECs); assay: Stabilized (covalent) adhesion of radiolabeled C. albicans germ tubes to human buccal epithelial cells; assay type: cell-based, Candida albicans
Description: Mass conversion of yeasts, radiolabeled with Tran^35S-label (ICN) (5 μCi/ml), to germ tubes (5×10^6/ml) was induced in prewarmed M199 (40 ml) for 2.5 hours at 37° C. No differences in the proportion of (>95%) germ tubes or in germ tube length were seen among strains. Washed germ tubes and BECs from a healthy donor, suspended in 300 μl of reaction buffer 3 (50 mM Tris-Cl pH 7.5, 10 mM CaCl2, 1 mM EDTA, 1 mM DTT), at a germ tube/BEC ratio of 100:1, were mixed, incubated for 1 hour at 37° C. followed by reaction termination with 100 mM EGTA (75 μl). The BEC donors understood the nature of the studies and consented to provide BECs. Radioactivity of BEC fractions was determined by scintillation counting after centrifugation on 50% Percoll gradients, and germ tubes per BEC was determined using the specific activity of each strain. Background counts, determined from gradients with germ tubes only, were less than 6% of counts for germ tube/BEC mixtures and were subtracted from counts of epithelial cell-germ tube mixtures. […]
Radiolabeled germ tubes of the control strain, UnoPP-1, were incubated with BECs at a ratio of 100:1 with or without 5 or 10 mM monodansylcadaverine in reaction buffer 3, supra. […] The cell mixtures were incubated for 1 hour at 37° C., and the number of germ tubes covalently attached to BECs were determined. […]

Row | Compound | effect on transglutaminase-mediated fluorescence labelling of germ tubes [1] | stabilized adhesion of UnoPP-1 to BECs with transglutaminase inhibited ([2]; iodoacetamide 10 mM, BECs pretreated 15 minutes, CAH7-1A was 23% of UnoPP-1) | reduction of adhesion of germ tubes to BEC relative to DMSO control ([2]; 5 or 10 mM, UnoPP-1 germ tubes/BEC 100:1, 1 hour at 37° C., covalently attached germ tubes)
1 | O=C(O)CN(CCOCCOCCN(CC(=O)O)CC(=O)O)CC(=O)O [EGTA] | inhibited | – | –
2 | NC(=O)CI [iodoacetamide] | inhibited | low level of stabilized adhesion of CAH7-1A was equivalent to that of UnoPP-1 | –
3 | CN(C)c1cccc2c(S(=O)(=O)NCCCCCN)cccc12 [monodansylcadaverine] | – | – | approximately 87%
